System: P23H opsin
Test: Rhodopsin purification and regeneration (P23H cells treated with compound, regenerated with 9-cis-retinal, 480-500 nm absorbance)
Settings: P23H cells, 48 hours, regeneration with 9-cis-retinal (20 μM)

Compound | Fold Increase Over Control (480-500 nm absorbance as fold increase over the DMSO control) (compound concentration 10 μM) [fold] | Fold Increase Over Control (480-500 nm absorbance as fold increase over the DMSO control) (compound concentration 20 μM) [fold]
CC1(C)CCCC2(C)CC(=NO)C=C12 (stereo not drawn) [Compound 30, 4,4,7a-trimethyl-5,6,7,7a-tetrahydro-1H-inden-2(4H)-one oxime] | 1.8 | –
CC1(C)CCC[C@@]2(C)CC[C@H](O)[C@@H]12 (racemic) [Compound 60, (±)-(1S,3aS,7aS)-3a,7,7-trimethyloctahydro-1H-inden-1-ol] | – | 2.1
CC1(C)CCC[C@@]2(C)C=C[C@@H](O)[C@@H]12 (racemic) [Compound 37, (±)-(1R,3aS,7aS)-3a,7,7-trimethyl-3a,4,5,6,7,7a-hexahydro-1H-inden-1-ol] | 1.8 | –
CC1(C)CCC[C@@]2(C)[C@@H](O)CC[C@@H]12 (racemic) [Compound 18, (±)-(1S,3aS,7aR)-4,4,7a-trimethyloctahydro-1H-inden-1-ol] | – | 1.7
CON=C1C=C2C(C)(C)CCCC2(C)C1 (stereo not drawn) [Compound 31, 4,4,7a-trimethyl-5,6,7,7a-tetrahydro-1H-inden-2(4H)-one O-methyl oxime] | 1.6 | –
C[C@@H]1CC(=NO)[C@H]2C(C)(C)CCC[C@@]12C (racemic) [Compound 16, (±)-(3R,3aS,7aS)-3,3a,7,7-tetramethyloctahydro-1H-inden-1-one oxime] | – | 2.2
CC1=C(C)[C@]2(C)CCCC(C)(C)[C@@H]2[C@H]1O (racemic) [Compound 66, (±)-(1R,3aR,7aS)-2,3,3a,7,7-pentamethyl-3a,4,5,6,7,7a-hexahydro 1H inden-1-ol] | – | 1.9
CC1(C)CCC[C@@]2(C)C(=O)CC[C@@H]12 (racemic) [Compound 5, (±)-(3aS,7aR)-4,4,7a-trimethyloctahydro-1H-inden-1-one] | 1.7 | –
CON=C1C=C(C(C)C)[C@]2(C)CCCC(C)(C)[C@H]12 (racemic) [Compound 51, (±)-(3aR,7aS)-3-isopropyl-3a,7,7-trimethyl-3a,4,5,6,7,7a-hexahydro-1H-inden-1-one O-methyl oxime] | 1.7 | –
CN1CC2=C(C1=O)C(C)(C)CCC2 [Compound 13, 2,7,7-trimethyl-2,3,4,5,6,7-hexahydro-1H-isoindol-1-one] | – | 2.2
CC1(C)CCC[C@@]2(C)CC(O)C[C@@H]12 (mixture of isomers) [Compound 63, (±)-(3aS,7aS)-3a,7,7-trimethyloctahydro-1H-inden-2-ol] | – | 2.3
CC1=CC(=NO)[C@H]2C(C)(C)CCC[C@@]12C (racemic) [Compound 14, (±)-(3aR,7aS)-3,3a,7,7-tetramethyl-3a,4,5,6,7,7a-hexahydro-1H-inden-1-one oxime] | – | 2.4
CC1=C(C)[C@]2(C)CCCC(C)(C)[C@@H]2C1=O (racemic) [Compound 65, (±)-(3aR,7aS)-2,3,3a,7,7-pentamethyl-3a,4,5,6,7,7a-hexahydro-1H-inden-1-one] | – | 1.8
CC1(C)CCCC2=CC(=O)CC21 (stereo not drawn) [Compound 27, 7,7-dimethyl-5,6,7,7a-tetrahydro-1H-inden-2(4H)-one] | 2.0 | –
CC1=CC(=O)[C@H]2C(C)(C)CCC[C@@]12C (racemic) [Compound 1, (±)-(3aR,7aS)-3,3a,7,7-tetramethyl-3a,4,5,6,7,7a-hexahydro-1H-inden-1-one] | 1.7 | –
COC(=O)C1=C[C@]2(C)CCCC(C)(C)[C@@H]2C1 (racemic) [Compound 8, (±)-(3aS,7aS)-methyl 3a,7,7-trimethyl-3a,4,5,6,7,7a-hexahydro-1H-indene-2-carboxylate] | – | 2.1
CC1(C)CCC[C@@]2(C)C=C[C@H](O)[C@@H]12 (racemic) [Compound 36, (±)-(1S,3aS,7aS)-3a,7,7-trimethyl-3a,4,5,6,7,7a-hexahydro-1H-inden-1-ol] | 2.0 | –
C[C@H]1C(=O)C=C2C(C)(C)CCC[C@]21C (racemic) [Compound 20, (±)-(1R,7aS)-1,4,4,7a-tetramethyl-5,6,7,7a-tetrahydro-1H-inden-2(4H)-one] | – | 1.9
CC1(C)CCC[C@@]2(C)CC(CO)C[C@@H]12 (mixture of isomers) [Compound 26, (±)-((3aS,7aS)-3a,7,7-trimethyloctahydro-1H-inden-2-yl)methanol] | – | 2.3
CC1(C)CCCC2=C1CCC2=O [Compound 56, 4,4-dimethyl-2,3,4,5,6,7-hexahydro-1H-inden-1-one] | 1.7 | –

Compound | Fold Increase Over Control (480-500 nm absorbance as fold increase over the DMSO control) (compound concentration 10 μM) [fold] | Fold Increase Over Control (480-500 nm absorbance as fold increase over the DMSO control) (compound concentration 20 μM) [fold]
CCC1=CC(=O)[C@H]2C(C)(C)CCC[C@@]12C (racemic) [Compound 34, (±)-(3aR,7aS)-3-ethyl-3a,7,7-trimethyl-3a,4,5,6,7,7a-hexahydro-1H-inden-1-one] | 2.2 | –
CC(C)C1=CC(=O)[C@H]2C(C)(C)CCC[C@@]12C (racemic) [Compound 29, (±)-(3aR,7aS)-3-isopropyl-3a,7,7-trimethyl-3a,4,5,6,7,7a-hexahydro-1H-inden-1-one] | 2.4 | –
CC1(C)CCC[C@@]2(C)C(c3ccccc3)=CC(=O)[C@@H]12 (racemic) [Compound 28, (±)-(3aR,7aS)-3a,7,7-trimethyl-3-phenyl-3a,4,5,6,7,7a-hexahydro-1H-inden-1-one] | 1.7 | –
CC1=C(C)[C@H]2[C@H](CCCC2(C)C)[C@@H]1O (racemic) [Compound 72, (±)-(1S,3aS,7aS)-2,3,4,4-tetramethyl-3a,4,5,6,7,7a-hexahydro-1H-inden-1-ol] | – | 1.9
C[C@H]1C(=O)C=C2[C@H]1CCCC2(C)C (racemic) [Compound 67, (±)-(1R,7aS)-1,4,4-trimethyl-5,6,7,7a-tetrahydro-1H-inden-2(4H)-one] | – | 1.8
CC1=C(C)[C@H]2[C@H](CCCC2(C)C)C1=O (racemic) [Compound 64, (±)-(3aS,7aS)-2,3,4,4-tetramethyl-3a,4,5,6,7,7a-hexahydro-1H-inden-1-one] | – | 2.1
CC1(C)CCC[C@@]2(C)CC(=NO)C[C@@H]12 (racemic) [Compound 62, (±)-(3aS,7aS)-3a,7,7-trimethylhexahydro-1H-inden-2(3H)-one oxime] | – | 2.3
CC(C)[C@H]1C(=O)C=C2[C@H]1CCCC2(C)C (racemic) [Compound 61, (±)-(1R,7aS)-1-isopropyl-4,4-dimethyl-5,6,7,7a-tetrahydro-1H-inden-2(4H)-one] | – | 1.8
CC(C)C1=CC(=NO)[C@H]2C(C)(C)CCC[C@@]12C (racemic) [Compound 45, (±)-(3aR,7aS)-3-isopropyl-3a,7,7-trimethyl-3a,4,5,6,7,7a-hexahydro-1H-inden-1-one oxime] | 3.0 | –
C[C@@H]1CC(=O)C2=CCCC(C)(C)[C@H]21 (racemic) [Compound 71, (±)-(3R,3aR)-3,4,4-trimethyl-2,3,3a,4,5,6-hexahydro-1H-inden-1-one] | – | 2.2
CC1(C)CCC[C@@]2(C)C(=NO)CC[C@@H]12 (racemic) [Compound 33, (±)-(3aS,7aR)-4,4,7a-trimethyloctahydro-1H-inden-1-one oxime] | 1.8 | –
CC1(C)CCC(C)(C)C2CC(=O)C=C21 (stereo not drawn) [Compound 41, 4,4,7,7-tetramethyl-5,6,7,7a-tetrahydro-1H-inden-2(4H)-one] | 1.9 | –
CC1(C)CCCC2CC(=NO)CC21 (stereo not drawn) [Compound 55, 4,4-dimethylhexahydro-1H-inden-2(3H)-one oxime] | 2.8 | –
CC1(C)CCC(C)(C)[C@H]2OC(=O)C[C@H]21 (racemic) [Compound 3, (±)-(3aS,7aS)-4,4,7,7-tetramethylhexahydrobenzofuran-2(3H)-one] | – | 2.2
CC1(C)CCC[C@@]2(C)C=C(CO)C[C@@H]12 (racemic) [Compound 22, (±)-((3aS,7aS)-3a,7,7-trimethyl-3a,4,5,6,7,7a-hexahydro-1H-inden-2-yl)methanol] | – | 1.8
CC1(C)CCC[C@@]2(C)CC(=O)C[C@@H]12 (racemic) [Compound 40, (±)-(3aS,7aS)-3a,7,7-trimethylhexahydro-1H-inden-2(3H)-one] | 1.8 | –
CC(C)[C@@H]1CC(=O)[C@H]2C(C)(C)CCC[C@@]12C (racemic) [Compound 46, (±)-(3S,3aS,7aS)-3-isopropyl-3a,7,7-trimethyloctahydro-1H-inden-1-one] | 1.8 | –
CC1(C)CCC[C@@]2(C)C(C3CC3)=CC(=O)[C@@H]12 (racemic) [Compound 44, (±)-(3aR,7aS)-3-cyclopropyl-3a,7,7-trimethyl-3a,4,5,6,7,7a-hexahydro-1H-inden-1-one] | 2.2 | –
CC1(C)CCCC2CC(=O)C=C21 (stereo not drawn) [Compound 53, 4,4-dimethyl-5,6,7,7a-tetrahydro-1H-inden-2(4H)-one] | 1.7 | –

— patent US9499464B2, “Opsin-binding ligands, compositions and methods of use” (priority 2011, dated 2016)
